Experimental data from patent US20120183619A1, “TRICLOSAN DERIVATIVES AND NANOPARTICLES COMPRISING SAME” (BAR ILAN UNIVERSITY, priority 2011, published 2012).
≈ marks a conversion by molar mass, not a printed value.

What was measured:
[1] = system: Staphylococcus Aureus (S. aureus) (Gram-positive); assay: Killing curves / antimicrobial activity on S. aureus; type: cell-based
Protocol: (§1) In order to investigate the antimicrobial activity of the nanoparticles, a series of biological experiments were designed and carried out on two common bacterial pathogens, Escherichia Coli (E. coli) (Gram-negative) and Staphylococcus Aureus (S. aureus) (Gram-positive). Killing curves were determined in triplicate using starting inocula of 10^6 CFU mL^−1. Fresh, overnight growths of bacteria in TSB or TSB-Glu were diluted as necessary to produce the desired starting inocula in 10 mL of medium. T-SNPs and triclosan were tested in concentration ranges from 0 to 50 μg mL^−1 and 0 to 1 μg mL^−1, respectively. Unloaded SNPs were added at the highest tested concentration (50 μg mL^−1). TTESPC was previously dissolved in dimethyl sulfoxide (DMSO) and added to the media at a concentration of 50 μg mL^−1. Samples (100 μL) were removed from each well every 2 h and diluted appropriately in saline. Colony-forming units were determined by spotting 5 μL samples in triplicate on Luria-Bertani agar plates after 24 h incubation at 37° C. To confirm that the antimicrobial properties of the T-SNPs were mediated by the sole release of triclosan, the triclosan-resistant strain of E. coli, RJH108, was exposed to the highest concentration of T-SNPs tested (50 μg mL^−1). The viability was determined by using the same experimental protocol as described above.
(§2) Despite the similar MICs, a difference in the sensitivity of these strains to the T-SNPs treatment was observed. […] Then, the nanoparticles were centrifuged, filtered and the supernatant was incubated separately with E. coli and S. aureus and their growth was monitored. […]
(§3) The MIC of free triclosan that affected the growth of the two types of bacteria was measured (FIGS. 11A-B). […] As calculated from the elemental analysis, the triclosan constituted only […] of the nanoparticles, meaning that the highest concentration of nanoparticles taken for the experiments, 50 μg mL^−1, encompassed only 0.041 μg mL^1 of covalently bound triclosan. […]

[2] = system: Escherichia Coli (E. coli) (Gram-negative); assay: Killing curves / antimicrobial activity on E. coli; type: cell-based
Protocol: as §1, §2, §3

[3] = cited from earlier work

| SMILES | antibacterial activity (control) ([1]; S. aureus, 50 μg mL^−1, dissolved in DMSO) | antibacterial activity (control) ([2]; E. coli, 50 μg mL^−1, dissolved in DMSO) | chemical stability (time) ([3]; at up to 200° C.) | solubility in aqueous solution ([3]; unless the pH is alkaline) | effect on bacterial growth at equal triclosan concentration ([1]; S. aureus, 0.041 μg mL^1 triclosan (50 μg mL^−1 nanoparticles)) | MBC ([1]; Staphylococcus aureus, read-out: minimal bactericidal concentration (MIC)) [µg/mL] | effect on bacterial growth at equal triclosan concentration ([2]; E. coli, 0.041 μg mL^1 triclosan (50 μg mL^−1 nanoparticles)) | MBC ([2]; Escherichia coli, read-out: minimal bactericidal concentration (MIC)) [µg/mL] |
| --- | --- | --- | --- | --- | --- | --- | --- | --- |
| CCO[Si](CCCNC(=O)Oc1cc(Cl)ccc1Oc1ccc(Cl)cc1Cl)(OCC)OCC [TTESPC, 5-chloro-2-(2,4-dichlorophenoxy)phenyl (3-(triethoxysilyl)propyl)carbamate] | no antibacterial activity was observed | no antibacterial activity was observed |  |  |  |  |  |  |
| Oc1cc(Cl)ccc1Oc1ccc(Cl)cc1Cl [triclosan, 5-chloro-2-(2,4-dichlorophenoxy)phenol] |  |  | up to 2 h | fairly insoluble | only began to impede the bacterial growth | 0.1 (≈ 0.345 µM) | only began to impede the bacterial growth | 0.1 (≈ 0.345 µM) |
